The record followed here is patent publication US9534221B2, “Targeting the steroidogenic pathway for treating and/or preventing allergic diseases” (National Jewish Health, priority 2013, dated 2017).

Where “and” joins values, the source holds several entries; their conditions need not be identical. Equal entries are not always repeated.

One data set has as its target T1, Cyp11a1 (Mus musculus, UniProt Q9QZ82).
T1 construct: mononuclear cells (MNCs) were processed from the spleens of OT-1 mice; endogenous in cells
T1 sequence (Q9QZ82 37-526): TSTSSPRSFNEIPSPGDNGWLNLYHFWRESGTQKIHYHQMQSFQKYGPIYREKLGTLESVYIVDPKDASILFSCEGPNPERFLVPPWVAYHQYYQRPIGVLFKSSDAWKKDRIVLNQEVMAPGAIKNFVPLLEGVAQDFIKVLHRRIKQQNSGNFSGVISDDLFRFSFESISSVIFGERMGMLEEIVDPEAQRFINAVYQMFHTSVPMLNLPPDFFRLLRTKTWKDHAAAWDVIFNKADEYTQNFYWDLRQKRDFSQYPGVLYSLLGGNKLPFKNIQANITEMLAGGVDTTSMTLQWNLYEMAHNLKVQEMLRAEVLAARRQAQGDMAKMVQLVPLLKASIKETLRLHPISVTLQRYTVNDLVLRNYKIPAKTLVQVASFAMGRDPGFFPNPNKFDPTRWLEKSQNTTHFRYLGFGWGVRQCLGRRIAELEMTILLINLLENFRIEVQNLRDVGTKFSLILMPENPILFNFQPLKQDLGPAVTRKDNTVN
As to the kind of experiment: Pregnenolone ELISA in supernatants of differentiated CD8+ T cells (Cyp11a1 enzymatic activity). Format: cell-based. As to conditions: CD8+ T cells differentiated in IL-2+IL-4, AMG 500 μM; without AMG 424.8±35.5 pg/ml. In general terms: In an ELISA, binding on a coated surface is turned into a signal by an enzyme label.

The next data set relates to CD8+ T cells. In words: Flow cytometric intracellular staining of IFN-γ and IL-13 in CD8+ T cells. The data set is classed as cell-based, mouse. How it is done: CD8^+ effector memory T cells were generated in vitro as previously described (Miyahara, N. et al. J. Immunol. 172, 2549-2558 (2004); Miyahara, N. et al. J. Immunol. 174, 4979-4984 (2005)). In brief, mononuclear cells (MNCs) were processed from the spleens of OT-1 mice followed by stimulation of 1 μg/ml SIINFEKL peptide (SEQ ID NO:1) was used to stimulate cells for 1.5 hours. Two days after culture, living cells were re-isolated using histopaque and cultured in complete RPMI 1640 medium that contained recombinant mouse IL-2 (20 ng/ml) (R&D, Minneapolis, Minn.) or IL-2+IL-4 (20 ng/ml) (Peprotech, Rocky Hill, N.J.). For some experiments, AMG was added into the medium together with IL-2 or IL-2+IL-4. Medium with cytokines was changed every day for a further 4 days. The cells were then re-stimulated with 1 μg/ml SIINFEKL (SEQ ID NO:1) in medium containing 2 μM monensin (Calbiochem, La Jolla, Calif.) for 4 hours. […]
For intracellular staining, 1×10^6/ml cells were washed twice with PBS containing 1% BSA, stimulated with 1 μg/ml SIINFEKL in the presence of 2 μM monensin at 37° C. for 4 hours. After fixation with 4% paraformaldehyde (Electron Microscopy Sciences, Hatfield, Pa.) and permeabilization with 0.1% saponin (Sigma, St. Louis, Mo.), cells were washed twice with PBS containing 1% BSA, then incubated with anti-mouse CD16/CD32 (2.4G2) (BD Bioscience, San Jose, Calif.) at 4° C. for 5 minutes, then stained with FITC labeled anti-mouse IFN-γ (XMG 1.2) (eBioscience, San Diego, Calif.) or PerCP-Cy5.5 labeled anti-mouse […] (XMG 1.2) (eBioscience) and PE-labeled anti-mouse IL-13 (eBio13A) (eBioscience). For some experiments, fixed cells were stained with biotin labeled rabbit anti-Cyp11a1/p450 cc polyclonal antibody (Bioss, Woburn, Mass.) followed by PE-Cy5 labeled streptavidin (PE-Cy5-SAv) (eBioscience). Cell staining was monitored on a FACSCalibur (BD Bioscience) and analyzed using Flowjo software (Tree Star, Inc, Ashland, Oreg.).

The test system of data set [1] is OVA-sensitized CD8-deficient mice. As to the kind of experiment: Secondary allergen challenge model with adoptive transfer of CD8+ T cells. Format: in vivo, mouse. The protocol: The experimental protocol for sensitization and challenge to OVA was as described previously (Oka, H. et al. Cell. Immunol. 206, 7-15 (2000); Sundrud, M. S, and Nolan, M. A. Curr. Opin. Immunol. 22, 286-292 (2010)), with some modification. CD8-deficient mice were sensitized with 20 μg of OVA (Calbiochem, La Jolla, Calif.) emulsified in 2.25 mg of alum (AlumImuject; Pierce, Rockford, Ill.) on days 0 and 14 by intraperitoneal injection. Mice were challenged with 0.2% OVA for 20 minutes on days 21, 22, and 23 using an ultrasonic nebulizer (model NE-U07; Omron Healthcare, Kyoto, J P). […] Two hours after transfer, mice were challenged (secondary) with 1% OVA for 20 minutes. Airway function was measured and samples were collected on day 38. Airway function was assessed as described previously (Oka, H. et al. Cell. Immunol. 206, 7-15 (2000); Sundrud, M. S, and Nolan, M. A. Curr. Opin. Immunol. 22, 286-292 (2010)) by measuring changes in airway resistance (RL) in response to increasing doses of inhaled methacholine (Sigma, St. Louis, Mo.). Data were presented as percentage change from the baseline RL values after saline inhalation. […] After measurement of AHR, lungs were lavaged via the tracheal tube with 1 ml of HBSS. The supernatants were collected and IL-4, IL-5, and IL-13 (eBioscience, San Diego, Calif.) levels were measured by ELISA as described previously. Total leukocyte numbers were counted and differentiated as described previously (Oka, H. et al. Cell. Immunol. 206, 7-15 (2000); Sundrud, M. S, and Nolan, M. A. Curr. Opin. Immunol. 22, 286-292 (2010)). Mouse lungs were isolated and fixed in 10% formalin, then embedded in paraffin and cut into 5-μm thick tissue sections. Sections were stained with periodic acid-Schiff (PAS) and mucus-containing cells were quantitated as previously described (Oka, H. et al. Cell. Immunol. 206, 7-15 (2000); Sundrud, M. S, and Nolan, M. A. Curr. Opin. Immunol. 22, 286-292 (2010)). For some experiments, lung tissue expression of Cyp11a1 was identified by immunohistochemistry staining using anti-human Cyp11a1 antibody.

The mark [2] stands for this setting: IL-2+AMG (500 μM)+SIINFEKL 1 μg/ml.
The mark [3] stands for this setting: IL-2+IL-4+AMG (500 μM), no SIINFEKL
Where [4] appears, read: SIINFEKL and IL-2+IL-4, different concentrations of AMG.
The mark [5] stands for this setting: recipients of AMG-treated vs untreated CD8+ T cells.
The mark [6] stands for this setting: recipients of CD8+ T cells pretreated with AMG vs untreated cells.

Experimental for Cyp11a1: CD8^+ effector memory T cells were generated in vitro as previously described (Miyahara, N. et al. J. Immunol. 172, 2549-2558 (2004); Miyahara, N. et al. J. Immunol. 174, 4979-4984 (2005)). In brief, mononuclear cells (MNCs) were processed from the spleens of OT-1 mice followed by stimulation of 1 μg/ml [sequence] peptide (SEQ ID NO:1) was used to stimulate cells for 1.5 hours. Two days after culture, living cells were re-isolated using histopaque and cultured in complete RPMI 1640 medium that contained recombinant mouse IL-2 (20 ng/ml) (R&D, Minneapolis, Minn.) or IL-2+IL-4 (20 ng/ml) (Peprotech, Rocky Hill, N.J.). For some experiments, AMG was added into the medium together with IL-2 or IL-2+IL-4. Medium with cytokines was changed every day for a further 4 days. The cells were then re-stimulated with 1 μg/ml [sequence] (SEQ ID NO:1) in medium containing 2 μM monensin (Calbiochem, La Jolla, Calif.) for 4 hours.
CD8^+ T cells generated in the presence of IL-2, IL-2+IL-4, IL-2+AMG, or IL-2+IL-4+AMG were cultured in 6-well plates at 5×10^6/ml for 24 hours. Supernatants were collected. Pregnenolone levels were measured using the Pregnenolone ELISA kit (ALPCO Diagnostics, Salem, N.H.).
The enzymatic activity of Cyp11a1 was assessed using an ELISA assay for detection of pregnenolone levels in cell culture supernatants (Kim, C. J. et al. J. Clin. Endocrinol. Metab. 93, 696-702 (2008)).

On to `CCC1(c2ccc(N)cc2)CCC(=O)NC1=O` (stereo not drawn) [AMG, aminoglutethimide], for which the “Pregnenolone levels in cell supernatants” value at Cyp11a1 came out at 96.4 ± 35 pg/mL. Also, the “Overall suppressive or toxic effect on CD8+ T cell cultures” value in the data set with CD8+ T cells (AMG in culture) is recorded as “did not have an overall suppressive or toxic effect”. Besides, in the data set with CD8+ T cells (setting [2]), the “IFN-γ single positive cells” value is given as 78.3 +/− 8.3%, the “IFN-γ+IL13+ double positive cells” value is listed as 9.0 +/− 2.7% and the “IL-13 single positive cells” value was 0.1 +/− 0.1%. Further, in the data set with CD8+ T cells (IL-2+IL-4+AMG (500 μM)+SIINFEKL, without AMG 8.8±2.3%), the “IFN-γ+IL13+ double positive cells” value is 14.7±5.5% and 14.7 +/− 5.5%. Moreover, in the data set with CD8+ T cells (IL-2+IL-4+AMG (500 μM)+SIINFEKL, without AMG 14.5±5.8%), the “IFN-γ single positive cells” value turned out to be 42.4±11.5%. Moreover, the “IL-13 single positive cells” value in the data set on CD8+ T cells (IL-2+IL-4+AMG (500 μM)+SIINFEKL, without AMG 35.7±8.2%) was 14.7±8.9%. In the data set on CD8+ T cells (setting [3]), the “IFN-γ single positive cells” value is 0.9 +/− 0.5% and the “IL-13 single positive cells” value is recorded as 2.3 +/− 1.5%. In addition, in the data set on CD8+ T cells (setting [4]), the “IFN-γ-positive cells, dose dependence” value is “increase in IFN-γ-positive cells” and the “Percentage of IL-13-positive cells, dose dependence” value is reported as “dramatic dose-dependent decrease in the percentage of IL-13-positive cells”. Moreover, the “Duration of the effects of AMG on CD8+ T cell conversion before the cells recovered” value in the data set on CD8+ T cells (initial studies) is “up to forty-eight hours”. In addition, the “Cyp11a1-positive cells in the lung” value in data set [1] (recipients of AMG-treated cells) is listed as “few Cyp11a1-positive cells”. Also, in data set [1] (setting [5]), the “IL-4 level in BAL fluid” value was “significantly lower”, the “IL-5 level in BAL fluid” value was “significantly lower” and the “IL-13 level in BAL fluid” value is recorded as “significantly lower”. For the same compound, in data set [1] (setting [6]), the “Lung inflammation (histology)” value is “less inflammation” and the “Numbers of PAS+ mucus-containing goblet cells in lung” value is “significantly decreased”. Moreover, the “AHR (changes in airway resistance RL)” value in data set [1] (transfer of 5×10^6 CD8+ T cells differentiated in IL-2 with AMG (500 μM)) is “failed to restore AHR or airway inflammation”. Also, the “Airway inflammation (cell composition in BAL fluid)” value in data set [1] (transfer of CD8+ T cells differentiated in IL-2 with AMG (500 μM)) was “failed to restore AHR or airway inflammation”.
